The target of one experiment is PI3Kδ (p110δ/p85α) (Homo sapiens (Human), UniProt O00329). In words: PI3Kδ scintillation proximity assay. In kind it is biochemical. To be noted: 20 μM ATP; read-out: PI3Kδ SPA IC50. The text has this: [γ-^33P]ATP (10 mCi/mL) was purchased from Perkin-Elmer (Waltham, MA). Lipid kinase substrate, D-myo-Phosphatidylinositol 4,5-bisphosphate (PtdIns(4,5)P2)D (+)-sn-1,2-di-O-octanoylglyceryl, 3-O-phospho linked (PIP2), CAS 204858-53-7, was purchased from Echelon Biosciences (Salt Lake City, UT). PI3Kδ (p110δ/p85α) was purchased from Millipore (Bedford, MA). ATP, MgCl2, DTT, EDTA, MOPS and CHAPS were purchased from Sigma-Aldrich (St. Louis, MO). Wheat Germ Agglutinin (WGA) YSi SPA Scintillation Beads was purchased from GE healthcare life sciences (Piscataway, NJ).
The kinase reaction was conducted in polystyrene 384-well matrix white plate from Thermo Fisher Scientific in a final volume of 25 μL. Inhibitors were first diluted serially in DMSO and added to the plate wells before the addition of other reaction components. The final concentration of DMSO in the assay was 0.5%. The PI3K assays were carried out at room temperature in 20 mM MOPS, pH 6.7, 10 mM MgCl2, 5 mM DTT and CHAPS 0.03%. Reactions were initiated by the addition of ATP, the final reaction mixture consisted of 20 μM PIP2, 20 μM ATP, 0.2 μCi [γ-^33P]ATP, 4 nM PI3Kδ. Reactions were incubated for 210 min and terminated by the addition of 40 μL SPA beads suspended in quench buffer: 150 mM potassium phosphate pH 8.0, 20% glycerol. 25 mM EDTA, 400 μM ATP. The final concentration of SPA beads was 1.0 mg/mL. After the plate sealing, plates were shaken overnight at room temperature and centrifuged at 1800 rpm for 10 minutes, the radioactivity of the product was determined by scintillation counting on Topcount (Perkin-Elmer). IC50 determination was performed by fitting the curve of percent control activity versus the log of the inhibitor concentration using the GraphPad Prism 3.0 software. IC50 data for the Examples is presented in Table B as determined by Assay A.

For experiment [1], the system named is Pfeiffer cell line (diffuse large B cell lymphoma). Kind of experiment: Pfeiffer cell proliferation assay. In kind it is cell-based, human. As to conditions: for IC50: Homo sapiens, Pfeiffer, [3H]-thymidine incorporation. Here is the method: Pfeiffer cell line (diffuse large B cell lymphoma) are purchased from ATCC (Manassas, VA) and maintained in the culture medium recommended (RPMI and 10% FBS). To measure the anti-proliferation activity of the compounds, the Pfeiffer cells are plated with the culture medium (2×10^3 cells/well/per 200 μl) into 96-well ultra-low binding plates (Corning, Corning, NY), in the presence or absence of a concentration range of test compounds. After 3-4 days, [^3H]-thymidine (1 μCi/well) (PerkinElmer, Boston, MA) in PBS is then added to the cell culture for an additional 12 hours before the incorporated radioactivity is separated by filtration with water through GF/B filters (Packard Bioscience, Meridenj, CT) and measured by liquid scintillation counting with a TopCount (Packard Bioscience).
(Dividing cells build labelled thymidine or BrdU into new DNA.)

A further experiment concerns the target JAK2 (Homo sapiens (Human), UniProt O60674). Kind of experiment: JAK2/JAK1 selectivity, Assay A at 1 mM ATP. In kind it is biochemical. As to conditions: IC50 ratio.
The next experiment concerns the target JAK1 (Homo sapiens (Human), UniProt P23458). Kind of experiment: JAK1 IC50, Assay A of U.S. Ser. No. 14/680,659 at 1 mM ATP. The class given is biochemical.

The source of these data is US12226418B2, “Dosing regimen for the treatment of PI3K related disorders” (Incyte Corporation, priority 2018, dated 2025).

What is called IC50 is the point on the concentration scale where inhibition reaches its midpoint.

Sequence of PI3Kδ (p110δ/p85α) (O00329 whole entry): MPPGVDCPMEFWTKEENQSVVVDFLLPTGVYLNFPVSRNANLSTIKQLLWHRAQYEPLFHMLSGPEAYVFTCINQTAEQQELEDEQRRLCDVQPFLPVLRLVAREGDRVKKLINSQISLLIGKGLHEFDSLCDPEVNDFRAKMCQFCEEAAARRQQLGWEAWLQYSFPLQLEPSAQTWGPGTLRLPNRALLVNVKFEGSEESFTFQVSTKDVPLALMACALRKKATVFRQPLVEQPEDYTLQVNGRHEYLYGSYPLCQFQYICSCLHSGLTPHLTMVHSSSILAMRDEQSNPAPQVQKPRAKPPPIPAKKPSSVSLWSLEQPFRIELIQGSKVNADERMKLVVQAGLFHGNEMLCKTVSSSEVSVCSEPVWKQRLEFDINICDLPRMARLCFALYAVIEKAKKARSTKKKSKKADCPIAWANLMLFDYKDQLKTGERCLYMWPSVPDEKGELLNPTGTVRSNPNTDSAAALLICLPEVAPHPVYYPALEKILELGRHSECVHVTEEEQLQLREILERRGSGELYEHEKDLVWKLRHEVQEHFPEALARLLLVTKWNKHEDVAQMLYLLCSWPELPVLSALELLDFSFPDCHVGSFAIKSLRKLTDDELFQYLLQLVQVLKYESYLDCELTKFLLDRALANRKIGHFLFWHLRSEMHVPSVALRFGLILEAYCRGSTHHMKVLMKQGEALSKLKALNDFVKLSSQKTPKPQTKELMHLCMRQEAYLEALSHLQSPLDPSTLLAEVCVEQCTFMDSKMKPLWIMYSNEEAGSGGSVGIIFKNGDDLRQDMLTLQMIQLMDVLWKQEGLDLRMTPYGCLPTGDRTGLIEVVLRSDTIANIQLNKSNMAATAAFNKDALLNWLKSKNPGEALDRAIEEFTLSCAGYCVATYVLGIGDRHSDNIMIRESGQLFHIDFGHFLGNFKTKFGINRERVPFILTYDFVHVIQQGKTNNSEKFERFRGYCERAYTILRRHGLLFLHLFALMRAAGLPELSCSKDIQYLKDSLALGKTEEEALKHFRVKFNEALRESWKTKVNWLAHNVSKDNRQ
Sequence of PI3Kδ (p110δ/p85α) (P27986 whole entry partner): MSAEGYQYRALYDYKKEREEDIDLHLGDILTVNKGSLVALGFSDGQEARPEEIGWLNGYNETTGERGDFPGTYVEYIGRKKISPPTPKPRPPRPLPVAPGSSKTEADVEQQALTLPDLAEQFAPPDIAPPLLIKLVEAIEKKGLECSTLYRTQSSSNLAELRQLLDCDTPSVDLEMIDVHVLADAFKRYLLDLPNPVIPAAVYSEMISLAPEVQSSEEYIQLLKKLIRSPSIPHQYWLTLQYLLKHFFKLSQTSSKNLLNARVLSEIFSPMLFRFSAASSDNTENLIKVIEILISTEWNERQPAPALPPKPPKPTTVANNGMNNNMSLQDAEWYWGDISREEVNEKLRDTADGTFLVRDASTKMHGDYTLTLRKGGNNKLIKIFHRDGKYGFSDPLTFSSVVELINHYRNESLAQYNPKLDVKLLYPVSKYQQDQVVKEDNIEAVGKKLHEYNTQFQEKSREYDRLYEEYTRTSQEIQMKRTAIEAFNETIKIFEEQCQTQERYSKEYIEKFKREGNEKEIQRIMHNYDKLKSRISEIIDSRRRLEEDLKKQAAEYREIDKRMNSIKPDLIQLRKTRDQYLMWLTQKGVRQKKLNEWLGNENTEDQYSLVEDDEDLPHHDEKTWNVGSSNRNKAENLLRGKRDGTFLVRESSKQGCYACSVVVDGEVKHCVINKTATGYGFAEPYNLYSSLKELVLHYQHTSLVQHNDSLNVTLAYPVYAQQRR
Sequence of JAK2 (O60674 828-1132): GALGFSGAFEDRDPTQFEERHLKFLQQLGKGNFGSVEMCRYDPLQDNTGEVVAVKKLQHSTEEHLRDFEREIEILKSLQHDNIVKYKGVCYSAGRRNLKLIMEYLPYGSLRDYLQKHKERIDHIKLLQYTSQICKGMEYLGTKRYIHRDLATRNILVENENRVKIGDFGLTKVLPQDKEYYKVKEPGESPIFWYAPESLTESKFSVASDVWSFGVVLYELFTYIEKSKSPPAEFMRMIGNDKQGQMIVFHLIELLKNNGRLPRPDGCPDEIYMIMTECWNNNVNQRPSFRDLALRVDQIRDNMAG
Sequence of JAK1 (P23458 837-1142): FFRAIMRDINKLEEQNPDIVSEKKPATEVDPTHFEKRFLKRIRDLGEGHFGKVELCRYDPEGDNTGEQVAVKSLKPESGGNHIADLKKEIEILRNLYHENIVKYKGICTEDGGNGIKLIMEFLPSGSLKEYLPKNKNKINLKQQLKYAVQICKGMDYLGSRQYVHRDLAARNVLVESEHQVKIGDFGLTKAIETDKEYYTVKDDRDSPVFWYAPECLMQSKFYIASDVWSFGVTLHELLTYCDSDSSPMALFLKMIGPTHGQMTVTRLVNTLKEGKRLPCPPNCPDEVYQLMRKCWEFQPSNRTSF

`CCOc1c(C(C)n2nc(C)c3c(N)ncnc32)cc(Cl)c(F)c1C1CNC(=O)C1` (single isomer, unassigned) [Example 1D, 4-{3-[1-(4-amino-3-methyl-1H-pyrazolo[3,4-d]pyrimidin-1-yl)ethyl]-5-chloro-2-ethoxy-6-fluorophenyl}pyrrolidin-2-one]: the IC50 on PI3Kδ (p110δ/p85α) was in the range of 50 to 200 nM. Same read-out and setting: with `CCOc1c(C(C)n2nc(C)c3c(N)ncnc32)cc(Cl)c(F)c1C1CNC(=O)O1` (single isomer, unassigned) [Example 2B, 5-{3-[1-(4-amino-3-methyl-1H-pyrazolo[3,4-d]pyrimidin-1-yl)ethyl]-5-chloro-2-ethoxy-6-fluorophenyl}-1,3-oxazolidin-2-one] the figure was 50 to 200 nM. The compound `CCOc1c(C(C)n2nc(C)c3c(N)ncnc32)cc(Cl)c(F)c1C1CNC(=O)C1` (single isomer, unassigned) [Example 1B, 4-{3-[1-(4-amino-3-methyl-1H-pyrazolo[3,4-d]pyrimidin-1-yl)ethyl]-5-chloro-2-ethoxy-6-fluorophenyl}pyrrolidin-2-one] returned an IC50 in experiment [1] of no more than 10 nM.

`CCOc1c(C(C)n2nc(C)c3c(N)ncnc32)cc(Cl)c(F)c1C1CNC(=O)O1` (single isomer, unassigned) [Example 2A, 5-{3-[1-(4-amino-3-methyl-1H-pyrazolo[3,4-d]pyrimidin-1-yl)ethyl]-5-chloro-2-ethoxy-6-fluorophenyl}-1,3-oxazolidin-2-one]: at PI3Kδ (p110δ/p85α), the half-maximal inhibitory concentration (IC50) was 50 to 200 nM. Still for that read-out and setting: under `CCOc1c(C(C)n2nc(C)c3c(N)ncnc32)cc(Cl)c(F)c1C1CNC(=O)C1` (single isomer, unassigned) [Example 1A, 4-{3-[1-(4-amino-3-methyl-1H-pyrazolo[3,4-d]pyrimidin-1-yl)ethyl]-5-chloro-2-ethoxy-6-fluorophenyl}pyrrolidin-2-one] stands 50 to 200 nM. As for `CCOc1c(C(C)n2nc(C)c3c(N)ncnc32)cc(Cl)c(F)c1C1CNC(=O)C1` (single isomer, unassigned) [Example 1C], the “sensitivity of Pfeiffer cancer cells to anti-proliferative effects in vitro” value in experiment [1] is “sensitive”.

For the compound `N#CCC1(n2cc(-c3ncnc4[nH]ccc34)cn2)CN(C2CCN(C(=O)Nc3ccc(F)cc3C(F)(F)F)CC2)C1` [Example 8], at JAK2, the “JAK2/ JAK1” value is listed as greater than 10. Moreover, on JAK1, the half-inhibitory concentration (IC50) was less than 10 nM.

`CCOc1c(C(C)n2nc(C)c3c(N)ncnc32)cc(Cl)c(F)c1C1CNC(=O)O1` (single isomer, unassigned) [Example 2D, 5-{3-[1-(4-amino-3-methyl-1H-pyrazolo[3,4-d]pyrimidin-1-yl)ethyl]-5-chloro-2-ethoxy-6-fluorophenyl}-1,3-oxazolidin-2-one]: the 50% inhibitory concentration (IC50) at PI3Kδ (p110δ/p85α) was greater than 500 nM.

`CCOc1c(C(C)n2nc(C)c3c(N)ncnc32)cc(Cl)c(F)c1C1CNC(=O)O1` (single isomer, unassigned) [Example 2C, 5-{3-[1-(4-amino-3-methyl-1H-pyrazolo[3,4-d]pyrimidin-1-yl)ethyl]-5-chloro-2-ethoxy-6-fluorophenyl}-1,3-oxazolidin-2-one]: in experiment [1], the 50% inhibitory concentration (IC50) was no more than 10 nM.
